Measured values taken from paper PMC10818546, “CYP1-Activation and Anticancer Properties of Synthetic Methoxylated Resveratrol Analogues” (Molecules, 2024).
Like-named read-outs stand apart in the source and are kept apart here.

Experiments:
MCF7 = assay: MTT cytotoxicity assay, MCF7 cells (uninduced); assay type: cell-based, human; settings: Homo sapiens, read-out: IC50 MCF7
Method: (§1) The antiproliferative activity of the resveratrol analogues was investigated using a human breast cell line panel, which has been characterised for CYP1 expression in our laboratories. IC50 values for both cis- and trans-isomers were determined using a standard 3-[4,5-dimethylthiazol-2-yl]-2,5-diphenyl tetrazolium bromide (MTT) cell viability assay and are shown in Table 1 (trans-stilbene analogues) and Table 2 (cis-stilbene analogues).
(§2) MCF7 cells are both ER positive and Ah receptor positive and have been well documented for their CYP1 expression, and it is known that treatment with TCDD elevates CYP1A1 and CYP1B1 expression. The cells were treated with DMSO (0.1%) for 24 h for constitutive expression, whereas for inducible CYP1 expression, the cells were treated with TCDD (10 nM) for 24 h.
(§3) A standard MTT (3-[4,5-dimethylthiazol-2-yl]-2,5-diphenyl tetrazolium bromide) cell viability assay was employed to evaluate the cytotoxicity of the stilbenes prepared. The MTT assay is a rapid quantitative spectrophotometric method for determining cell growth (viability) due to necrosis or apoptosis in monolayer-cultured cell lines in response to external factors. It is widely employed to evaluate the cytotoxicity of potential medicinal agents.
(§4) MCF7 cells were grown in RPMI-1640 medium with phenol red and 10% (v/v) heat-inactivated (heated to 56 °C for 45 min) foetal calf serum. MDA-468 cells were grown in RPMI-1640 medium with 10% (v/v) heat-inactivated foetal calf serum and L-glutamine (2 mM) without phenol red. MCF-10A cells were grown in Dulbecco’s modified Eagle’s medium/ Ham’s F-12 medium (1:1) with 5% (v/v) heat-inactivated foetal calf serum, epidermal growth factor (20 ng/mL), insulin ([…]) and hydrocortisone (500 ng/mL). Cells were maintained at 37 °C, 5% CO2/95% air with 100% humidity and passaged every 2–3 days using trypsin EDTA solution (0.25% w/v). Adhered cells at sub confluence were harvested for experimental use.
(§5) Aliquots of cell suspensions (100 µL at 2 × 10^3 cells per ml) were dispensed into sterile 96-well microtiter flat-bottomed plates. For the MDA468 and MCF10A cell lines, the plates were incubated at 37 °C, 5% CO2/95% air with 100% humidity for 24 h prior to the addition of test compounds. For MCF7 cells, after allowing approximately 4 h for cells to adhere, 100 µL of medium containing TCDD (from 100 mM stock in DMSO) or medium with 0.2% (v/v) DMSO was added to give a final concentration of 10 nM TCDD and 0.1% (v/v) DMSO. After 24 h, the medium was aspirated and replaced with fresh medium (100 µL) before the addition of test compounds.
(§6) Then, 100 µL aliquots of test compounds were added within 30 min into the wells from a 100 mM stock solution in DMSO and serially diluted to give final concentrations of […], 0.01, 0.003, 0.001 and 0.0003 µM. […] The cells were allowed to grow for 96 h at 5% CO2, 37 °C, to give 80–90% confluence in the control wells, after which 50 µL of 2 mg/mL MTT (final concentration 0.4 mg/mL) in sterile phosphate buffer was added to each well and the plates were further incubated for 2 h. All medium was aspirated and the formazan precipitate generated by viable cells was solubilised by 150 µL of DMSO. All the plates were vortexed and the absorbance at 540 nm was determined using a SpectraMax M5 plate reader (Molecular Devices, Wokingham, UK).
(§7) Results were expressed as a percentage of the control value versus the negative logarithm of the molar drug concentration range using GraphPad Prism (Version 5.00). Relative toxicities of each compound within each cell line were expressed as 50% of growth inhibition (IC50). All determinations were carried out in quadruplicate.

MCF7 (TCDD) = assay: MTT cytotoxicity assay, TCDD-induced MCF7 cells; assay type: cell-based, human; settings: Homo sapiens
Method: as §1, §2, §3, §4, §5, §6, §7

MCF10A = assay: MTT cytotoxicity assay, MCF10A non-tumour control cells; assay type: cell-based; settings: Homo sapiens, MCF-10A, read-out: IC50 MCF10A
Method: as §1
MCF10A cells are non-tumourigenic human mammary epithelial in origin which have been spontaneously immortalised without chemical intervention. CYP1 activity in MCF10A cells is negligible. […] Thus, MCF10A cell line is commonly used as a control in cytotoxicity assays.
as §3, §4, §5, §6, §7

MDA468 = assay: MTT cytotoxicity assay, MDA468 cells; assay type: cell-based, human; settings: for IC50: Homo sapiens, read-out: IC50 MDA468; for TS = tumour selectivity = IC50 MCF10A/IC50 MDA468: ratio of IC50 values
Method: as §1
MDA468 cells represent an aggressive multi-drug-resistant tumour type and are ER negative but are aryl hydrocarbon (Ah) receptor positive in the presence of TCDD [46].
as §3, §4, §5, §6, §7

MDA231 = assay: MTT cytotoxicity assay, MDA231 cells; assay type: cell-based; settings: Homo sapiens, MDA-MB-231; triple negative breast tumour cell line
Method: DMU212 was also evaluated for cytotoxic activity in the aggressive, triple negative breast tumour cell line MDA231. This cell line has been reported to only weakly express CYP1A1 but constitutively express CYP1B1 [33]. […] However further studies would be required to confirm this statement.
MDA231 breast cancer cell line represents an aggressive tumour type. Treatment of this ER-negative and Ah receptor-positive cell line with TCDD has been reported to only weakly induce CYP1A1 mRNA expression but enhance the constitutive CYP1B1 expression. Other researchers have reported the ratio of active CYP1A1/CYP1B1 protein as 16/84 ratio in MDA231 [32].
as §3, with “It is widely employed to evaluate the cytotoxicity of potential medicinal agents.” left out
Then, 100 µL aliquots of test compounds were added within 30 min into the wells from a 100 mM stock solution in DMSO and serially diluted to give final concentrations of […], 0.01, 0.003, 0.001 and 0.0003 µM. […] All the plates were vortexed and the absorbance at 540 nm was determined using a SpectraMax M5 plate reader (Molecular Devices, Wokingham, UK). […]

[1] = test system: CYP1 enzymes (CYP1A1, CYP1A2, CYP1B1); assay: Incubation with human CYP1 Supersomes, HPLC analysis; assay type: in vitro ADME; settings: NADPH, 37 °C, 20 min
Method: The CYPs isozyme panel used in this study were prepared from transformed insect cells expressing human CYPs (CYP1A1, CYP1A2 or CYP1B1) with co-expression of human NADPH reductase (Supersomes^TM). […] The general procedure was as follows: DMU212 was separately incubated with CYP1A1, CYP1A2, CYP1B1, CYP3A4 and non-CYP-expressing Supersomes^TM in the presence of phosphate buffer and NADPH at 37 °C. Samples were taken at regular intervals of 5 min over a 20 min period, and the enzymatic reaction in the sample was terminated immediately. Following centrifugation, the supernatants were removed and analysed by HPLC.
After 10 min of analysis, a linear gradient was initiated with the acetonitrile content rising to 70% over 5 min and with the 50 mM ammonium acetate decreasing accordingly. An equilibration time of 6 min was allowed between each sample. Analysis was conducted with a Jasco (Jasco UK limited) analytical system consisting of an AS841 autosampler, PU980 pump and LG low-pressure tertiary mixing valve, FP1500 fluorescence detector (JASCO UK Ltd., Heckmondwike, UK), column heater/ chiller (Jones Chromatography), and DG440 in-line degasser (Phenomenex, UK). Analytical data were collected using Borwin HPLC software (version 1.5), For the detection of DMU215, an in-line photoreactivity cell was used (Beam Boost^TM, Advanced Separations Technology Incorporated).

[2] = mouse, 0.2% (w/w) of the diet for 14 weeks; cited from earlier work
[3] = test system: human breast cell line panel; assay: MTT cytotoxicity assay, statements for all cell lines of the panel; assay type: cell-based; settings: MCF7, MCF7 (TCDD), MCF10A, MDA468, summary of the text; for IC50: Homo sapiens, read-out: IC50 for all cell lines tested
Method: as §1, §3, §4, §5, §6, §7

[4] = MCF7, 96 h, MTT assay, 96 h incubation, 37 °C, means of quadruplicate
[5] = MCF7, MTT assay, 96 h incubation, cells induced with 10 nM TCDD for 24 h, read-out: IC50 MCF7 (TCDD)
[6] = 96 h, MTT assay, 96 h incubation, non-tumour control cells
[7] = MCF7, MTT assay, 96 h incubation, 37 °C, means of quadruplicate
[8] = MTT assay, 96 h incubation, non-tumour control cells

Compound	TS = tumour selectivity = IC50 MCF10A/IC50 MDA468 (MDA468)	IC50 (MCF7; [4])	IC50 (MCF7 (TCDD); [5])	IC50 (MCF10A; [6])	IC50 (MDA468; MTT assay, 96 h incubation)	IC50 [3]	other results
COc1ccc(/C=C/c2cc(OC)c(OC)c(OC)c2)cc1 [DMU212, (E)-4,3′,4′,5′-tetramethoxystilbene]	over 4000						IC50 (MCF7; MCF7, 96 h): 2.6 µM; IC50 (MCF7 (TCDD); MCF7, read-out: IC50 MCF7 (TCDD)): 0.12 µM; IC50 (MCF10A; 96 h): 4.3 µM; IC50 (MDA468; 96 h): 0.001 µM; TS = tumour selectivity = IC50 MCF10A/IC50 MDA468 (MDA468; listed as 212): 4300; IC50 (MDA231): > 100 µM; substrate for CYP1 enzymes [1]: substrate for CYP1 enzymes; hepatotoxicity [2]: without any obvious signs of hepatoxicity; steady state level in the liver [2]: up to 0.7 nmol/g tissue
COc1ccc(C=Cc2cc(OC)c(OC)c(OC)c2)cc1O [DMU214, 3,4,5,4′-tetramethoxy-3′-hydroxy stilbene]	1	0.06 µM	0.11 µM	0.05 µM	0.05 µM		IC50 for all cell lines tested [3]: sub-micromolar IC50 values
COc1cc(C=Cc2ccc(O)c(O)c2)cc(OC)c1OC [DMU283, 3,4,5-trimethoxy-3′,4′-dihydroxy stilbene]	0.16	0.02 µM	0.14 µM	0.008 µM	0.05 µM		IC50 for all cell lines tested [3]: sub-micromolar IC50 values
COc1cc(/C=C/c2ccccc2)cc(OC)c1OC [DMU507]	7	50 µM	50 µM	70 µM	10 µM	> 10 µM	
COc1cc(/C=C\c2ccccc2)cc(OC)c1OC [DMU508]	0.9	5 µM	4 µM	7 µM	9 µM	4 to 9 µM	
COc1cc(/C=C/c2ccc(OC)c3ccccc23)cc(OC)c1OC [DMU569]	nine		8.6 µM		4.5 µM		IC50 (MCF7; [7]): 30 µM; IC50 (MCF10A; [8]): 40 µM; TS = tumour selectivity = IC50 MCF10A/IC50 MDA468 (MDA468; listed as 569): 9
COc1ccc(/C=C\c2cc(OC)c(OC)c(OC)c2)cc1OC [DMU1024]	2	9 µM	9 µM	10 µM	6 µM		
COc1ccc(/C=C/c2cc(OC)c(OC)c(OC)c2)cc1OC [DMU2417]	2	14 µM	14 µM	18 µM	9 µM	> 9 µM	
Oc1ccc(/C=C/c2cc(O)cc(O)c2)cc1 [Resveratrol, (E)-4,3′,5′-trihydroxy stilbene]	1.7		33 µM		29 µM		IC50 (MCF7; [7]): 31 µM; IC50 (MCF10A; [8]): 50 µM
